For data set [1] the following is noted: cited from earlier work.
The test system of the next data set is human Caki-2 RCC cells. Kind of data set: Induction of glycogenosis in Caki-2 RCC cells by activators of the hypoxia pathway. It is filed as cell-based. How it is done: To test this hypothesis it was first necessary to establish an in vitro model of glycogenosis in a relevant clear cell renal cell carcinoma (ccRCC) cell type (CAKI-2 cells). It was first necessary to induce levels of glycogenosis similar to those measured in human disease. We obtained human RCC biopsies (FIG. 4 B) and compared glycogen levels with neighboring grossly uninvolved tissue (GU). […] We treated human Caki-2 RCC cells with known activators of hypoxia pathway in 20 mM glucose for 24 h: 100 μM cobalt chloride, 100 μM desferrioxamine (DFO), and hypoxia (pO2=1%) (FIG. 4 A).
We therefore repeated the induction of glycogenosis with DFO after prior treatment with HIF-1α RNAi (FIG. 5).

The subject of the next data set is prostate cancer cells. The settings on record: cited from earlier work.
Data set [2] has as its system RCC. The settings on record: high dose, cited from earlier work.
For a further data set, the system named is HIF protein. The data set can be described thus: Immunoblot of HIF protein levels in Caki-2 cells. It is filed as cell-based, human. The settings on record: 100 μM, 20 mM glucose, 24 h. How it is done: To test this hypothesis it was first necessary to establish an in vitro model of glycogenosis in a relevant clear cell renal cell carcinoma (ccRCC) cell type (CAKI-2 cells). It was first necessary to induce levels of glycogenosis similar to those measured in human disease. We obtained human RCC biopsies (FIG. 4 B) and compared glycogen levels with neighboring grossly uninvolved tissue (GU). There was a […] induction of glycogen levels in human RCC (1±1 to 230±40 μg glucose/mg protein, p<0.01). We treated human Caki-2 RCC cells with known activators of hypoxia pathway in 20 mM glucose for 24 h: 100 μM cobalt chloride, 100 μM desferrioxamine (DFO), and hypoxia (pO2=1%) (FIG. 4 A).
(Immunoblotting shows a protein as a band on a membrane.)

Data set [3] deals with CAKI-2 cells. Kind of data set: Cell death by propidium iodide inclusion (FACScan) under nutrient deprivation and azide. It is filed as cell-based, human. As to the method:
The invention was tested in an in vitro model. CAKI-2 cells were pre-incubated in the presence of 300 μM desferrioximine (DFO, solid line) in RPMI1640 and 10% fetal calf serum to induce the accumulation of glycogen. After 16 hours the media was changed to DMEM with 0 mM glucose and 0 mM pyruvate for 4 hours, to mimic the absence of nutrient as present in the interior of a tumor or resulting from treatment with anti-angiogenic inhibitors, increasing concentrations of sodium azide (0 to 100 mM) to mimic the absence of oxygen, and the presence or absence of 60 μM CP-316819 to specifically target glycogenolysis (CP, closed circles). Cells were then trypsinized, collected, treated with 0.1 mg propidium iodide in KRBH buffer (25 mM HEPES 7.4, 120 mM NaCl, 4.6 mM KCl, 1.9 mM CaCl2, 1 mM MgSO4, and 1.2 mM KH2PO4), and analyzed for cell death by measuring inclusion of propidium iodide on a FACScan instrument ([…]).

For data set [4], the system named is RCC. The settings on record: clinical trials; cited from earlier work.
For data set [5], the system named is CAKI-2 cells. Kind of data set: Glycogen mobilization in glucose-starved CAKI-2 cells. Format: cell-based, human. The source says: Caki-2 cells loose glycogen when starved of glucose in the media and not when there was abundant glucose (p<0.05). As proposed in the invention glycogen reserves are responsive to the metabolic status of the carcinoma cell and are mobilized in response to metabolic stress.
We also tested whether glycogen mobilization could be inhibited pharmacologically (FIG. 6B). We therefore treated glucose-starved CAKI-2 cells with two types of glycogenolysis inhibitor: CP-316819 (▪), which inhibits glycogen phosphorylase and NN-DNJ (♦), which inhibits lysosomal glycogen breakdown. […] After 4 h glycogen loss was restricted to 25% and roughly ⅓^rd was still present after 20 h in glucose free media (p<0.05).

Another data set concerns pancreatic tumor cells. As to conditions: cited from earlier work.
Setting [6] is: 100 μM, 20 mM glucose, 24 h, Caki-2 cells.

The text below walks through data of patent US20100166701A1, “METHOD FOR TREATING RENAL CELL CARCINOMA USING GLYCOGENOLYSIS INHIBITORS” (priority 2008, published 2010).

Entries after “also recorded” stand apart in the source; their conditions may differ. Where two headings read alike, the source gives them in different places.

`CCCCCCCCCN1C[C@H](O)[C@@H](O)[C@H](O)[C@H]1CO` [NN-DNJ, N-(n-Nonyl)deoxynojirimycin]: the “duration of sustained increases in hepatic glycogen levels” value in [1] (mice) was “at least 120 days”. Also, in data set [1] (mouse, in vivo), the body weight entry is recorded as “did not lose body weight” and the hypoglycemia result is “did not suffer hypoglycemia below normal fasting levels”.

For the compound ferric ammonium citrate, the DFO-dependent glycogen accumulation result in the data set on human Caki-2 RCC cells (incubated in 150 μM ferric ammonium citrate) is reported as “did not occur”.

As for `CN(C)C(=O)[C@H](O)[C@H](Cc1ccccc1)NC(=O)c1cc2cc(Cl)ccc2[nH]1` [CP-91149], in the data set with prostate cancer cells, the glycogen content result is given as “two-fold increase” and the “reduction in cell number” value was 50%.

As for “bevacizumab: humanized monoclonal antibody, VEGF receptor antagonist”, the survival entry in the data set with RCC [2] (after three years) is reported as “no difference in survival”. Moreover, in the data set on RCC [2], the response was 30%.

As to `CC(=O)N(O)CCCCCNC(=O)CCC(=O)N(O)CCCCCNC(=O)CCC(=O)N(O)CCCCCN` [DFO, desferrioxamine], the “stabilization of HIF protein levels” value in the data set with HIF protein is reported as “able to stabilize HIF protein levels”. Further, the “resistance to cell death” value with CAKI-2 cells [3] (pre-incubated 300 μM DFO 16 hours, 100 mM azide, 0 mM glucose 4 hours) is “significantly resistant to cell death”. In the data set on human Caki-2 RCC cells (setting [6]), the “glycogen level (glycogenosis)” value is on record as 320±90 μg glucose/mg protein. In addition, the “increase of glycogen levels” value in the data set with human Caki-2 RCC cells (CAKI-2 cells, DFO treatment) was found to be 9 fold.

As to `CCN(CC)CCNC(=O)c1c(C)[nH]c(/C=C2\C(=O)Nc3ccc(F)cc32)c1C` [sunitinib malate], in the data set on RCC [4], the “median increase in survival” value was 16.4 months; the response is recorded as 24% to 40%; the “stable disease, additional patients” value was 27% to 46%.

Regarding CP-316819, the “protection of glycogen-loaded cells against cell death” value in the data set with CAKI-2 cells [3] (60 μM CP-316819, DFO-pretreated cells, 0 mM glucose, 0 mM pyruvate, 4 hours, sodium azide) was “this protection is lost; also recorded: removed that protection”. This compound showed a glycogen loss in the data set with CAKI-2 cells [5] (after 4 h, glucose-starved CAKI-2 cells) of 25%. In addition, the “glycogen still present (fraction)” value in the data set on CAKI-2 cells [5] (after 20 h in glucose free media) is “roughly ⅓”. In the data set on CAKI-2 cells [5] (glucose-starved CAKI-2 cells), the “reducing glycogen breakdown (comparison of the two inhibitors)” value is “most effective at reducing glycogen breakdown”.

As to `[Cl][Co][Cl]` [cobalt chloride], in the data set on HIF protein, the “stabilization of HIF protein levels” value was “only DFO was able to stabilize HIF protein levels”. Also, the “induction of glycogenosis to a level equivalent to human RCC biopsies” value in the data set with human Caki-2 RCC cells (setting [6]) is recorded as “Only DFO, the iron chelator, was able to induce glycogenosis”.

On to `O=C(N[C@@H](Cc1ccc(F)cc1)C(=O)N1CCC(O)CC1)c1cc2cc(Cl)ccc2[nH]1` [CP-320626], for which the “flux into fatty acid synthesis and the pentose phosphate cycle” value in the data set with pancreatic tumor cells (concentrations below those required for anti-proliferative and pro-apoptotic effects) is “inhibited”. For the same compound, the “flux of glucose through the TCA cycle” value with pancreatic tumor cells (pancreatic tumor cells) is listed as “decreased”.
